Measurements taken from patent publication US7867983B2, “Methods to protect skeletal muscle against injury” (The University of Connecticut, priority 2007, dated 2011).

Legend:
[1] = test system: skeletal muscle ischemia/reperfusion injury; assay: Mouse hindlimb ischemia and reperfusion model, Evans Blue dye staining of gastrocnemius muscle, wild-type mice; type: in vivo, mouse (C57BL6 wild-type); conditions: WT mice; for EBD-positive area: ligand alone i.p. 2 h before 90 min ischemia, PBS vehicle 28%±6%; for EBD-positive area, agonist plus DPCPX: A1 antagonist DPCPX 0.2 mg/kg i.p. 30 min before agonist; for EBD-positive area, agonist plus MRS1191: A3 antagonist MRS1191 0.05 mg/kg i.p. 30 min before agonist
Protocol: Mouse Hindlimb Ischemia and Reperfusion Model: After 2.5- to 3-month-old wild-type (WT; C57BL6 strain) or PLC β2/β3 knockout mice (in C57BL6 background), each weighing about 23-25 g, were sedated with anesthetic (pentobarbital 50 mg/kg was given by intraperitoneal [i.p.] injection), their right or left hindlimbs (used randomly) were elevated briefly to minimize retained blood before being subjected to ischemia. Ischemia was induced by placement of a constrictor band (Latex O-Rings, Miltex Instruments, York, Pa.) above the greater trochanter with a McGiveney Hemorrhoidal Ligator (7 in long; Miltex). After 90 minutes of warm ischemia at 37° C., the constrictor was removed to allow reperfusion for 24 hours. The mice were continuously maintained on a 37° C. warming pad (Physitemp Instruments Inc, Clifton, N.J.) during the reperfusion. After the mice were killed by anesthetic overdose, the gastrocnemius muscle was quickly frozen, cut into three slices separated by 2-3 mm, and embedded in Shandon Cryomatrix (polyvinyl alcohol 10%, polyethylene glycol 4%; Anatomical Pathology U.S.A., Pittsburgh, Pa.). Each slice was processed as one 10 μm section on a Thermo Electron/Shandon Cryotome (Anatomical Pathology), fixed in ice-cold acetone, air dried, and washed in phosphate-buffered saline (PBS). Each 10 μm section had seven fields. Gastrocnemius was used because of its high proportion of fast-twitch muscle, which is prone to ischemia and reperfusion injury.
Quantification of Skeletal Muscle Injury: Evans Blue dye (EBD), prepared as a 1% wt/vol solution to yielding 1 mg of EBD/10 g body weight), was given via a separate i.p. injection 2.5 hours before the induction of ischemia. EBD stained only injured muscle and EBD-positive cells were quantified. The percent EBD-positive cells in each field was averaged with those from all seven fields within one 10 μm section. The averaged fraction of EBD-positive cells in each 10 μm section was similar among the three sections. Each 10 μm section was also stained with rabbit polyclonal anti-skeletal muscle actin antibodies (ab15265; Abcam Inc, Cambridge, Mass.) and goat polyclonal anti-rabbit IgG conjugated with fluorescein isothiocyanate. Sections were mounted, and their cross sections were viewed with fluorescent microscopy (Evans Blue dye [EBD]-positive cells via a DM580 band pass filter 510-560 nm with emission of 590 nm; fluorescein isothiocyanate cells via a DM510 filter of 450-490 nm with emission at 520 nm). Each field was counted at 20× magnification and their images captured via the two filters for quantification of muscle injury as follows. Images were acquired and stored as JPEG files with a Macrofire camera (Macrofire 1.0, Optronics, Goleta, Calif.). The ImageProPlus Program (version 5.0, Media Cybernetics, Inc, Silver Spring, Md.) was used for the quantitative determination. The percentage of EBD-positive areas was calculated by dividing the area of EBD staining by the total muscle cells, a quantity defined as the total area stained by anti-skeletal muscle actin antibodies and was identical to the total area in each field minus the area not occupied by any cell. The actin-stained area included EBD-positive area, as shown in superimposed EBD- and actin antibody-stained images. Serum creatine kinase (CK) activity was measured with a previously described procedure. The fraction of skeletal muscle staining positive for EBD represented a direct determination of the muscle that was injured, and the serum CK level provided a circulating index of the extent of skeletal muscle injury. Both are established and accepted methods to quantify skeletal muscle injury.
Protocol for Administration of Adenosine Receptor Agonist and Antagonist. […]

[2] = test system: skeletal muscle ischemia/reperfusion injury; assay: Mouse hindlimb ischemia and reperfusion model, Evans Blue dye staining, PLC β2/β3-null mice; type: in vivo; conditions: agonist alone i.p. before ischemia/reperfusion, mean±SE, PBS 23.4%±4%
Protocol: Mouse Hindlimb Ischemia and Reperfusion Model: After 2.5- to 3-month-old wild-type (WT; C57BL6 strain) or PLC β2/β3 knockout mice (in C57BL6 background), each weighing about 23-25 g, were sedated with anesthetic (pentobarbital 50 mg/kg was given by intraperitoneal [i.p.] injection), their right or left hindlimbs (used randomly) were elevated briefly to minimize retained blood before being subjected to ischemia. Ischemia was induced by placement of a constrictor band (Latex O-Rings, Miltex Instruments, York, Pa.) above the greater trochanter with a McGiveney Hemorrhoidal Ligator (7 in long; Miltex). After 90 minutes of warm ischemia at 37° C., the constrictor was removed to allow reperfusion for 24 hours. The mice were continuously maintained on a 37° C. warming pad (Physitemp Instruments Inc, Clifton, N.J.) during the reperfusion. […]
Quantification of Skeletal Muscle Injury: Evans Blue dye (EBD), prepared as a 1% wt/vol solution to yielding 1 mg of EBD/10 g body weight), was given via a separate i.p. injection 2.5 hours before the induction of ischemia. EBD stained only injured muscle and EBD-positive cells were quantified. […] Each field was counted at 20× magnification and their images captured via the two filters for quantification of muscle injury as follows. […] The ImageProPlus Program (version 5.0, Media Cybernetics, Inc, Silver Spring, Md.) was used for the quantitative determination. The percentage of EBD-positive areas was calculated by dividing the area of EBD staining by the total muscle cells, a quantity defined as the total area stained by anti-skeletal muscle actin antibodies and was identical to the total area in each field minus the area not occupied by any cell. […] Serum creatine kinase (CK) activity was measured with a previously described procedure. […] Both are established and accepted methods to quantify skeletal muscle injury. […]

[3] = test system: exercise-induced skeletal muscle injury; assay: 15% downhill treadmill exercise-induced skeletal muscle injury, wild-type mice; type: in vivo, mouse (wild type); conditions: wild-type mice injected with agonist, then exercised; P<0.05 vs vehicle
Description: (§1) Wild type (WT), beta-sarcoglycan-deficient, and PLCβ2/β3-null mice were all 8-10 weeks old and have similar body weights. Beta-sarcoglycan-null mice have been developed as a mouse model of limb-girdle muscular dystrophy. PLCβ2/β3-null mice have been used as a model to determine the physiologic role of these enzyme isoforms in mediating the effect of various adenosine receptor subtypes. The 15% downhill treadmill exercise is an established method to cause exertion-related skeletal muscle injury in rodents and has been used to gauge the success of therapy aimed at reducing skeletal muscle injury in mouse models of muscular dystrophy. Mice were exercised to exhaustion and for similar amount of time. […] Thus, only serum CK activity was used to quantify the extent of skeletal muscle injury in these normal WT mice. In the beta-sarcoglycan-null mice, there was already a significant level of skeletal muscle damage at baseline (in the absence of imposed physical exercise, EBD-positive area was 9.7±2.0%, n=28 mice, SE; serum CK was 2363±310, U/L, n=30 mice, SE). Both EBD staining and serum CK were used to quantify the extent of skeletal muscle injury.
Adult wild-type mice were injected with the A3 receptor agonist Cl-IBMECA. They were then subjected to exercise, and their skeletal muscle injuries were quantified using serum CK was used as a marker of muscle injury. […]

[4] = test system: exercise-induced skeletal muscle injury; assay: 15% downhill treadmill exercise-induced skeletal muscle injury, beta-sarcoglycan-null mice (limb-girdle muscular dystrophy model); type: in vivo, mouse (beta-sarcoglycan-null); conditions: beta-sarcoglycan-null mice treated, then exercised
Description: as §1
Beta-sarcoglycan-null mice were used as a model of Limb-Girdle Muscular Dystrophy. […] The extent of skeletal muscle injury was determined by (FIG. 10) serum CK level and (FIG. 11) percentage of EBD-stained area. […]

[5] = test system: exercise-induced skeletal muscle injury; assay: 15% downhill treadmill exercise-induced skeletal muscle injury, PLCβ2/β3-null mice; type: in vivo, mouse (PLCβ2/β3-null); conditions: PLCβ2/β3-null mice treated, then exercised; P>0.1 vs PBS
Description: as §1
PLCβ2/β3-null mice were used as a model to determine the role of PLCβ2/β3 in mediating the protective effect on exercise-induced injury by Cl-IBMECA. […] Serum CK levels were used to quantify the extent of skeletal muscle injury. […]

[6] = 90 min ischemia, 24 h reperfusion, mean±SE

| Compound | EBD-positive area ([1]; 24 h reperfusion, mean±SE) | EBD-positive area, agonist plus DPCPX [1, 6] | EBD-positive area, agonist plus MRS1191 [1, 6] | EBD-positive area [2] | other results |
| --- | --- | --- | --- | --- | --- |
| CCOC(=O)C1=C(C)NC(c2ccccc2)=C(C(=O)OCc2ccccc2)C1C#Cc1ccccc1 (racemic) [MRS1191, 3-ethyl 5-benzyl-2-methyl-6-phenyl-4-phenylethynyl-1,4-(±)-dihydropyridine-3,5-dicarboxylate] | 23%±4.4% | – | – | – | – |
| OC[C@H]1O[C@@H](n2cnc3c(NC4CCCC4)nc(Cl)nc32)[C@H](O)[C@@H]1O [CCPA, 2-chloro-N^6-cyclopentyladenosine] | 10.8%±2% | 22%±3.3% | 12.2%±2.4% | 8.5%±2.5% | – |
| CCNC(=O)[C@H]1O[C@@H](n2cnc3c(N)nc(NCCc4ccc(CCC(=O)O)cc4)nc32)[C@H](O)[C@@H]1O [CGS21680, 2-p-(2-Carboxyethyl)phenethylamino-5′-N-ethylcarboxamidoadenosine] | 6.6%±3.5% | 14.7%±2.3% | 2.4%±1.25% | 4%±1.1% | EBD-positive area, agonist plus SCH 442416 ([1]; A2A antagonist SCH 442416 0.017 mg/kg i.p. 30 min before agonist, 90 min ischemia, 24 h reperfusion, mean±SE): 26%±4% |
| CNC(=O)[C@H]1O[C@@H](n2cnc3c(NCc4cccc(I)c4)nc(Cl)nc32)[C@H](O)[C@@H]1O [Cl-IBMECA, 2-chloro-N^6-(3-iodobenzyl)adenosine-5′-N-methyluronamide] | 5.4%±2.6% | 4%±1.6% | 21.5%±3.5% | 22%±3.6% | serum CK vs. vehicle after exercise [3]: reduction in the serum CK; serum CK level vs. vehicle after exercise ([4]; P=0.0066 vs vehicle): reduction in the serum CK level; percentage of EBD-positive area vs. vehicle after exercise ([4]; P=0.03 vs vehicle): reduced the percentage of EBD-positive area; serum CK level vs. PBS after exercise [5]: unable to induce a reduction in the serum CK level |
| CCCn1c(=O)c2[nH]c(C3CCCC3)nc2n(CCC)c1=O [DPCPX] | 19.3%±4.4% | – | – | – | – |
| C[C@H](Cc1ccccc1)Nc1ncnc2c1ncn2[C@@H]1O[C@H](CO)[C@@H](O)[C@H]1O [R-PIA] | – | – | – | – | extent of injury (EBD staining), result in words ([1]; given prior to ischemia and reperfusion, 0.05 mg/kg i.p.): significant reduction in the extent of injury |
